Tested on: Staphylococcus aureus (ATCC #27660)
Test: Rapid Germicidal Time Kill on treated gloves
Type: cell-based
Conditions: for log reduction of organisms: nitrile gloves, versus applied organisms estimated from latex control
Experimental: We applied an inoculum of a known amount of microbes to the antimicrobial-treated surface of a glove. After about 3-6 minutes, we assessed the number of microbes that remained on the surface of the treated glove. […] Table 2 reports the relative efficacy of killing after contact with the coated glove. The concentration of organisms on the surface is given at an initial Zero Time point and at 3, 5, and 30 minute points. […] To test the antimicrobial efficacy of a polyhexamethylene biguanide, we treated nitrile examination gloves according to ASTM protocol 04-123409-106 “Rapid Germicidal Time Kill.” In brief, about 50 μL of an overnight culture of Staphylococcus aureus (ATCC #27660, 5×10^8 CFU/mL) was applied to the glove material. After a total contact time of about 6 minutes the glove fabric was placed into a neutralizing buffer. Surviving organisms were extracted and diluted in Letheen broth. Aliquots were spread plated on Tryptic Soy Agar plates. Plates were incubated for 48 hours at 35° C. Following incubation the surviving organisms were counted and the colony forming units (CFU) were recorded. The reduction (log10) in surviving organisms from test material versus control fabric was calculated: Log10 CFU/swatch Control−Log10 CFU/swatch Test Article=Log10 Reduction.

Q: With Polyhexamethylene biguanide (PHMB) as the substance, how does the “log reduction of Staphylococcus aureus ATCC 27660” value (microtextured nitrile glove, machine applied at 0.03 g/glove) read?
A: greater than four log reduction

Q: And the “log reduction of organisms” value (hand sprayed with no heat)?
A: greater than one log reduction

Q: What about the “log reduction of organisms” value (machine sprayed under heated conditions) of the same substance?
A: greater than 5 log

From patent US20070048358A1, “Antimicrobial substrates” (priority 2005, published 2007)
